Laboratory results as given in ChEMBL document CHEMBL1201862, “PubChem BioAssay data set” (2004).
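Exposure lasted 48 hours, with cells grown in 96-well plates and compounds tested at five concentrations. GI50: concentration for 50% inhibition of growth.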 Activity calls are given as the source filed them. Cut-off read from the data, not from the text of the source: active = GI50 up to about 1.1 µM and inactive = higher.

Tests used:
Experiment in all cases: growth of human tumour cells (NCI), 48 h
[1] = tested on: HT-29
[2] = tested on: KM12
[3] = tested on: RPMI-8226
[4] = tested on: COLO 205
[5] = tested on: K562
[6] = tested on: LOX IMVI
[7] = tested on: SNB-19
[8] = tested on: A498
[9] = tested on: HCT-116
[10] = tested on: SF-295
[11] = tested on: SK-MEL-2
[12] = tested on: IGROV-1
[13] = tested on: SK-MEL-5
[14] = tested on: CAKI-1
[15] = tested on: OVCAR-4
[16] = tested on: OVCAR-5
[17] = tested on: ACHN
[18] = tested on: SR

Row | SMILES | GI50 [1] | GI50 [2] | GI50 [3] | GI50 [4] | GI50 [5] | GI50 [6] | GI50 [7] | GI50 [8] | GI50 [9] | GI50 [10] | GI50 [11] | GI50 [12] | GI50 [13] | GI50 [14] | GI50 [15] | GI50 [16] | GI50 [17] | GI50 [18]
1 | O=C(N[C@@H](c1ccccc1)[C@@H](O)C(=O)OCc1ccc2c(c1)OCO2)c1ccccc1 | > 100 µM (inactive) | > 100 µM (inactive) | > 100 µM (inactive) | > 100 µM (inactive) | > 100 µM (inactive) | > 100 µM (inactive) | > 100 µM (inactive) | > 100 µM (inactive) | > 100 µM (inactive) | > 100 µM (inactive) | > 100 µM (inactive) | > 100 µM (inactive) | > 100 µM (inactive) | 1 µM (active) | > 100 µM (inactive) | > 31.6 µM (inactive) |  | 
2 | Cc1nc2c(o1)/C(=N\c1ccccc1)c1ccccc1/C2=N/c1ccccc1 | 94.2 µM (inactive) | 85.5 µM (inactive) | 47 µM (inactive) | 29.1 µM (inactive) | 33.8 µM (inactive) | 28.4 µM (inactive) | > 100 µM (inactive) | > 100 µM (inactive) | 70.8 µM (inactive) | > 100 µM (inactive) | 61.9 µM (inactive) | > 100 µM (inactive) | > 100 µM (inactive) | > 100 µM (inactive) | 58.7 µM (inactive) | > 100 µM (inactive) | 53.6 µM (inactive) | 
3 | CCOC(=O)/C=C/c1c[nH]c(=O)[nH]c1=O | > 75 µM (inactive) | > 75 µM (inactive) | > 39.4 µM (inactive) | > 75 µM (inactive) | > 75 µM (inactive) | > 75 µM (inactive) | > 75 µM (inactive) | > 75 µM (inactive) | > 75 µM (inactive) | > 75 µM (inactive) | > 75 µM (inactive) | > 75 µM (inactive) | > 75 µM (inactive) | > 75 µM (inactive) | > 75 µM (inactive) | > 75 µM (inactive) |  | 
4 | CN(C)/N=C(\CCN1CCCC1)CC(c1ccccc1)c1c(O)c2ccccc2oc1=O (configuration not stated) | > 100 µM (inactive) |  | > 100 µM (inactive) | > 100 µM (inactive) | > 100 µM (inactive) | > 100 µM (inactive) | > 100 µM (inactive) |  | > 100 µM (inactive) | > 100 µM (inactive) | > 100 µM (inactive) | > 100 µM (inactive) |  | > 100 µM (inactive) | > 100 µM (inactive) | > 100 µM (inactive) | > 100 µM (inactive) | 
5 | CC1C(=O)CC(c2cccs2)N(N=O)C1c1cccs1 (configuration not stated) | 23.5 µM (inactive) | 54.1 µM (inactive) | 23.7 µM (inactive) | 53.1 µM (inactive) | 15.8 µM (inactive) | 56.5 µM (inactive) | > 85.3 µM (inactive) | 13.7 µM (inactive) | 46.2 µM (inactive) | 24.7 µM (inactive) | 49.9 µM (inactive) | 98.6 µM (inactive) | 33.4 µM (inactive) | > 100 µM (inactive) | 50.2 µM (inactive) | > 100 µM (inactive) |  | 
6 | CC1(c2cc3c(cc2Br)OCO3)SCCCS1 | 32.1 µM (inactive) | 51.4 µM (inactive) | 27.4 µM (inactive) | 51.4 µM (inactive) | 31 µM (inactive) | 40 µM (inactive) | 47.4 µM (inactive) | 58.5 µM (inactive) | 31.7 µM (inactive) | 49.1 µM (inactive) | 26.2 µM (inactive) | > 100 µM (inactive) | 20.4 µM (inactive) |  | 36.3 µM (inactive) | 42.3 µM (inactive) | 41.4 µM (inactive) | 
7 | Cc1cccc(C(C)(C)C)c1NC(=O)CCc1nnc(S)[nH]1 | > 100 µM (inactive) | > 100 µM (inactive) | > 100 µM (inactive) | > 100 µM (inactive) | > 100 µM (inactive) | > 100 µM (inactive) | > 100 µM (inactive) | > 100 µM (inactive) | > 100 µM (inactive) | > 100 µM (inactive) | > 100 µM (inactive) | > 100 µM (inactive) | > 100 µM (inactive) | > 100 µM (inactive) | > 100 µM (inactive) | > 100 µM (inactive) | > 100 µM (inactive) | 
8 | N#CCCc1nc2ccc(Br)cc2c(=O)n1-c1ccc(O)c([N+](=O)[O-])c1 | 27.7 µM (inactive) | 18.5 µM (inactive) | 17.3 µM (inactive) | 22.9 µM (inactive) | 23.9 µM (inactive) | 19 µM (inactive) |  | 47.3 µM (inactive) |  | 20.1 µM (inactive) | 18.6 µM (inactive) | 20.6 µM (inactive) | 18.4 µM (inactive) | 32.9 µM (inactive) | 20.5 µM (inactive) | 46.1 µM (inactive) | 30.3 µM (inactive) | 
9 | CCc1ccccc1NC(=O)CCc1n[nH]c(=S)o1 | > 100 µM (inactive) | > 100 µM (inactive) | 98.9 µM (inactive) | > 100 µM (inactive) | > 100 µM (inactive) |  | > 100 µM (inactive) | > 100 µM (inactive) | 18.5 µM (inactive) | > 100 µM (inactive) |  | > 100 µM (inactive) | > 100 µM (inactive) | > 100 µM (inactive) | > 100 µM (inactive) | > 100 µM (inactive) | > 100 µM (inactive) | 
10 | C=C1CCC23CC(CC[C@@H]2[C@@]12C[C@@H](c1ccoc1)OC2=O)OC3=O (some centres not stated) | > 100 µM (inactive) | > 100 µM (inactive) | > 100 µM (inactive) | > 100 µM (inactive) | > 100 µM (inactive) |  | > 100 µM (inactive) | > 100 µM (inactive) | > 100 µM (inactive) | > 100 µM (inactive) | > 100 µM (inactive) | > 100 µM (inactive) | > 100 µM (inactive) | > 100 µM (inactive) | > 100 µM (inactive) | > 100 µM (inactive) | > 100 µM (inactive) | 
11 | CC1OC=CC(=O)C1O (configuration not stated) | > 100 µM (inactive) | > 100 µM (inactive) |  |  | > 100 µM (inactive) | > 100 µM (inactive) |  |  |  | > 100 µM (inactive) | > 100 µM (inactive) | > 100 µM (inactive) | > 100 µM (inactive) |  | > 100 µM (inactive) | > 100 µM (inactive) | > 100 µM (inactive) | > 100 µM (inactive)
12 | O=C(O)COc1ccccc1C(=O)Nc1ccccc1 | > 100 µM (inactive) | > 100 µM (inactive) | > 100 µM (inactive) | > 100 µM (inactive) | > 100 µM (inactive) | > 100 µM (inactive) | > 100 µM (inactive) |  | > 100 µM (inactive) | > 100 µM (inactive) | > 100 µM (inactive) | > 100 µM (inactive) | > 100 µM (inactive) | > 100 µM (inactive) | > 100 µM (inactive) | > 100 µM (inactive) | > 100 µM (inactive) | > 100 µM (inactive)
13 | CC1=C[C@@H]2Cc3occc3C(C)(C)[C@@H]2CC1 | 16.6 µM (inactive) | 16.9 µM (inactive) |  | 18.9 µM (inactive) | 21.1 µM (inactive) | 19.2 µM (inactive) | > 10 µM (inactive) | 21.8 µM (inactive) | 19.4 µM (inactive) | 19.5 µM (inactive) | 10.9 µM (inactive) | > 10 µM (inactive) | 17.9 µM (inactive) | 23.4 µM (inactive) | 29.4 µM (inactive) | 22.8 µM (inactive) | 16 µM (inactive) | 14.5 µM (inactive)
14 | C#Cc1c(C)c(/C=C/C(C)=C/C=C/C(C)=C/C(=O)OC)n(C)c1C | > 100 µM (inactive) | > 100 µM (inactive) | > 100 µM (inactive) | > 100 µM (inactive) | > 100 µM (inactive) | > 100 µM (inactive) | > 100 µM (inactive) |  | > 100 µM (inactive) | > 100 µM (inactive) | > 100 µM (inactive) | > 100 µM (inactive) |  | > 100 µM (inactive) | > 100 µM (inactive) | > 100 µM (inactive) | > 100 µM (inactive) | > 100 µM (inactive)
15 | COC(=O)/C(C#N)=C1\NN=NN1CCCc1ccccc1 | > 100 µM (inactive) | > 100 µM (inactive) | > 100 µM (inactive) | > 100 µM (inactive) | > 100 µM (inactive) | > 100 µM (inactive) | > 100 µM (inactive) | 84.3 µM (inactive) | > 100 µM (inactive) | > 100 µM (inactive) |  | > 100 µM (inactive) | > 100 µM (inactive) | > 100 µM (inactive) |  |  | > 100 µM (inactive) | 
16 | CCOC(=O)NC(=O)c1cn(CCSCCOC(=O)NCCCCCCNC(=O)OCCSCCn2cc(C(=O)NC(=O)OCC)c(=O)n(C)c2=O)c(=O)n(C)c1=O | 52.5 µM (inactive) |  | 20.5 µM (inactive) | 56.2 µM (inactive) |  | 32.1 µM (inactive) | 34 µM (inactive) |  | 19.2 µM (inactive) | 75.7 µM (inactive) | 34.2 µM (inactive) |  |  |  |  | > 100 µM (inactive) | > 100 µM (inactive) | 13.4 µM (inactive)
17 | CC(NC1CCCC[C@@H]1O)c1ccccc1 (some centres not stated) | > 100 µM (inactive) | > 100 µM (inactive) | > 100 µM (inactive) | > 100 µM (inactive) | > 100 µM (inactive) | > 100 µM (inactive) | > 100 µM (inactive) |  | > 100 µM (inactive) | > 100 µM (inactive) | > 100 µM (inactive) | > 100 µM (inactive) | > 100 µM (inactive) | 55.3 µM (inactive) | > 100 µM (inactive) | > 100 µM (inactive) | > 100 µM (inactive) | 
18 | CC(=O)C(=Cc1cn(C)c(=O)n(C)c1=O)C(C)=O | 113 µM (inactive) | 85.1 µM (inactive) | 89.9 µM (inactive) | 80.9 µM (inactive) | 138 µM (inactive) | 71.1 µM (inactive) | 125 µM (inactive) | 101 µM (inactive) | 87.5 µM (inactive) | 107 µM (inactive) | 106 µM (inactive) | 150 µM (inactive) | 86.9 µM (inactive) | 83 µM (inactive) | 105 µM (inactive) | 97.7 µM (inactive) |  | 
